Earlier results as cited in patent publication US6211219A, “Aminocyclohexane derivatives as 5-HT receptor agonists” (Merck Sharp & Dohme Ltd., priority 1996, dated 2001).

Key:
[1] = test system: human 5-HT1Dα and 5-HT1Dβ receptor subtypes; details: cf. WO-A-91/17174, Table 1
humans = details: therapeutic doses

CNS(=O)(=O)Cc1ccc2[nH]cc(CCN(C)C)c2c1 [sumatriptan]
discrimination between the human 5-HT1Dα and 5-HT1Dβ receptor subtypes [1]: barely discriminates
adverse cardiovascular events on administration to humans (humans): certain adverse cardiovascular events
